According to article PMC12219075 (Scientific Reports, 2025):

target: Proto-oncogene tyrosine-protein kinase Src (SRC) (Homo sapiens, UniProt P12931); assay: mobility shift kinase assay; type: biochemical
Sequence (P12931 2-536): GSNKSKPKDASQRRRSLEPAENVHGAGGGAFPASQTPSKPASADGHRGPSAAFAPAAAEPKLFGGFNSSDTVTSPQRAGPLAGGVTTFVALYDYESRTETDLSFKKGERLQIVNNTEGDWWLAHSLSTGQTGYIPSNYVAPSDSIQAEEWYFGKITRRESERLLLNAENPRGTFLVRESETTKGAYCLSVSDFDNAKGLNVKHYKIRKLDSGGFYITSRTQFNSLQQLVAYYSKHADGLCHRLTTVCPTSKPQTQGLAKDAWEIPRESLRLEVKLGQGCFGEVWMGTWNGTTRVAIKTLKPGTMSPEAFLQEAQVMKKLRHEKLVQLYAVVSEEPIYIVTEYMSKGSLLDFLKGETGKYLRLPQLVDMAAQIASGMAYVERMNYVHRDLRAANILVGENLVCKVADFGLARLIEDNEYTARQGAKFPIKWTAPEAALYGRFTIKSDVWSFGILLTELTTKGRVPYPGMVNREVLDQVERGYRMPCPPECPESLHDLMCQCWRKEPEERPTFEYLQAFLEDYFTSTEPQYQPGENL

| Structure (SMILES) | IC50 [µM] |
| --- | --- |
| C[C@@H]1CC[C@]2(C(=O)O)CC[C@]3(C)C(=CC[C@@H]4[C@@]5(C)C[C@@H](O)[C@@H](O)C(C)(C)[C@@H]5CC[C@]43C)[C@@H]2[C@]1(C)O [compound 99, 2α,3α,19α-trihydroxyurs-12-en-28-oic acid] | 22.5 |
| CC1(C)CC[C@]2(C(=O)O)CC[C@]3(C)C(=CC[C@@H]4[C@@]5(C)C[C@@H](O)[C@H](O)C(C)(C)[C@@H]5CC[C@]43C)[C@@H]2C1 [compound 102, crataegolic acid] | 26.9 |
| CC1(C)CC[C@]2(C(=O)O)CC[C@]3(C)C(=CC[C@@H]4[C@@]5(C)CC[C@H](O)C(C)(C)[C@@H]5CC[C@]43C)[C@@H]2C1 [compound 116, oleanolic acid] | 29.9 |
